Laboratory results reported in US10844023B2 (Washington University, priority 2017, dated 2020).
Like-named read-outs stand apart in the source and are kept apart here. Values belong to the molecule of their own block, whether it stands above or below them.

Assays:
[1] = tested on: CMT2A MFN2 T105M mice; test: In vivo sciatic nerve mitochondrial motility in CMT2A mice; parameters: species or system mouse; conditions: IM, 2 mg/kg, assessed 4 hours later
Experimental: Sciatic nerve mitochondrial motility was measured 4 hours later. Results described in FIG. 58 are for 2 CMT2A mice per group.

[2] = tested on: Mfn2 null MEFs; test: Mitochondrial elongation (aspect ratio) fusogenicity assay; assay type: cell-based, mouse; conditions: for Fusogenic activity: mitochondrial elongation / fusion
[3] = molecular target: T1, MFN2 HR2 (Homo sapiens, UniProt O95140); test: HR1 peptide-HR2 target binding assay; conditions: FITC minipeptide 374-384 at HR2 binding site
T1 construct: host or cells: synthetic peptide (note in the listing); immobilised on Ni-NTA resin
T1 sequence (O95140 with tags, fused parts or gaps limits assumed): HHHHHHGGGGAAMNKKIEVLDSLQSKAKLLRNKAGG
Text: The Mfn-derived fusion-promoting and -inhibiting mini-peptides (simulated to obtain the chemical Mfn agonists in TABLE 1 and TABLE 2) were modified from amino acid heptad repeats (HR) in the HR1 domain and predicted to interact with their counterparts in the carboxyl terminus HR2 domain within the Mfn stalk region (see e.g., FIG. 1, top panel). A high-throughput binding assay was designed whereby the target HR2 peptide sequences, modified to include amino terminal 6×His tags and Gly linkers, were bonded to Ni-chelate resin (20 μg/ml) and used as immobilized “receptor” for amino-FITC-tagged Mfn2 374-384 (agonist ligand) in which the Ser analogous to Ser378 was replaced with Asp to confer the negative charge essential for activity. For antagonist studies the ligand was amino-FITC-tagged Mfn2 406-418. The FITC peptide ligands are suspended at 1 mM in 30% DMSO, 70% water (to minimize spontaneous aggregation) and diluted into binding buffer (de-ionized water) to a final concentration of 25 μM in the presence or absence of competing compound. Dose-dependent loss of resin-bound FITC signal (485 nm excitation/538 nm emission) measured in a 96 well spectrofluorometer represents binding of compound to its HR2 target (see e.g., FIG. 10, FIG. 11). Either the ligand peptide or the receptor peptide can be modified to represent mutations, variations, or posttranslational modifications of Mfn2. […]
Target HR2 peptide sequence modified to include amino terminal 6×His tags and Gly linkers, were bonded to Ni-NTA resin (4.4 μg/ml) (Quiagen) and used as immobilized “receptor” for amino-FITC-tagged Mfn2 374-384 (ligand) in which the Ser analogous to Ser378 was replaced with Asp to confer the negative charge essential for activity. […] Resin-bound FITC signal (485 nm excitation/538 nm emission) measured in a 96 well spectrofluorometer (Spectramax M5e, Molecular Devices) represented binding to HR2 target. Competition binding isotherms were plotted and IC50 values calculated using Prism 7 (GraphPad).

[4] = tested on: MFN2 Asp^378 and Ala^378 mutants; test: Mitochondrial fusion with MFN2 Ser378 mutants (Asp378, Ala378); assay type: cell-based, human
[5] = tested on: MFN2 T105M; test: Reversal of mitochondrial dysmorphology provoked by MFN2 T105M in MEFs; assay type: cell-based, mouse
[6] = tested on: cultured neurons expressing MFN2 T105M; test: Cultured mouse neurons expressing CMT2A mutant MFN2; assay type: cell-based
Experimental: Neonatal mouse hippocampal neurons were cultured from brains of one day old Mfn2 T105M or non-transgenic sibling mouse pups as described. After 10 days of differentiating culture neurons were infected with Adeno-Cre to induce Mfn2 T105M expression or Adeno-βgal as a control (50 MOI). After an additional 72 hours mitofusin agonists or DMSO vehicle were added. For static confocal imaging neuronal mitochondria were labeled with adenoviral-expressed mitoGFP plus TMRE. Autophagy was measured by LC3 aggregation in neurons infected with adenoviral LC3-GFP. For time-lapse studies of mitochondrial trafficking bi-cistronic Adeno-Cre/GFP marked Cre expression and mitochondria were labeled with adeno-mitoDsRed. Confocal live cell images were acquired with a time-lapse of 1 frame every 90 seconds for 1 hour.

[7] = tested on: MFN2 T105M sciatic nerves; test: Sciatic nerve axonal mitochondrial motility, agonist applied to the excised nerve; parameters: species or system mouse
Experimental: Sciatic nerves of 12-18 week old male or female MFN2 T105M mice were removed en bloc with the lumbar spine and axotomy at the tibial nerve, stained with TMEM ([…]) for 30 minutes in prewarmed Neurobasal Medium without phenol red (Thermo Fisher Scientific) at room temperature, washed, and maintained on the stage of a Nikon A1Rsi Confocal Microscope at 37 degrees C. for time-lapse confocal studies. Images were acquired with a 40×oil immersion objective at 1 frame every 5 or 10 seconds for sequential 10 minute periods. Mitofusin agonist chimera B-A/I was added after the first 10 minute imaging period (final concentrations of […]) and nerve axons imaged for another 40 minutes. Because there was no difference in mitochondrial trafficking or response to mitofusin agonist between male and female mice, the data were combined.

[8] = tested on: ALS and HD patient-derived fibroblasts; test: Mitochondrial health assays in ALS and HD patient-derived fibroblasts; assay type: cell-based, human
Experimental: HD patient-derived fibroblast cell lines (GM04693 from patient and GM05539 from patient) were purchased from Invitrogen. ALS patient-derived fibroblasts (ALS 1: ND29509 from patient having SOD1 mutation; ALS 2: ND30327 having FUS1 mutation) and fibroblasts of control healthy individuals were purchased from Coriell Institute, USA. All fibroblast cultures were maintained in MEM supplemented with 15% (v/v) FBS and 1% (v/v) penicillin/streptomycin at 37° C. in 5% CO2-95% air. Galactose media was used, to increase mitochondria-dependent metabolism oxidative phosphorylation. Human fibroblasts were switched to grow for 48 h in DMEM deprived of glucose and containing galactose (4.5 g/I), 1% FBS, 5 mM sodium pyruvate and 2 mM L-glutamine for the studies.
Cells cultured in 8-well chamber slides were washed with cold PBS, fixed in 4% formaldehyde, and permeabilized with 0.1% Triton X-100. After incubation with 2% normal goat serum (to block nonspecific staining), fixed cells were incubated overnight at 4° C. with TOM20 antibody (1:500) (Santa Cruz, USA). Cells were washed with PBS and incubated for 60 minutes with FITC-conjugated goat anti-rabbit IgG (1:500 dilution). The cells were then washed gently with PBS and counterstained with Hoechst 33342 (1:10,000 dilution, Molecular Probes) to visualize nuclei. The coverslips were mounted with Slow-fade anti-fade reagent (Invitrogen), and images were acquired at 60×using an All-in-One Fluorescence Microscope BZ-X700 (Keyence).
Cells were incubated with tetra-methyl-rhodamine methyl ester (TMRM, 25 nM, Invitrogen) in HBSS (Hank's balanced salt solution) for 30 min at 37° C., per the manufacture's protocol, and the fluorescence was analyzed to measure mitochondrial membrane potential. All data were normalized with respect to the fluorescence intensity of control cells. To determine mitochondrial ROS production, cells were treated with 5 μM MitoSOX™ Red, a mitochondrial superoxide indicator (Invitrogen) for 20 min at 37° C., according to the manufacturer's protocol, and fluorescence was analyzed using SpectraMax M2e (Molecular devices).

[9] = Plasma protein binding (equilibrium dialysis); assay type: in vitro ADME
Experimental: (§1) Plasma protein binding was measured using equilibrium dialysis; % bound=(1-[free compound in dialysate]/[total compound in retentate])×100. Plasma stability of […] compound in clarified freeze-thawed plasma was assessed by LC-MS/MS of supernatants after protein precipitation; 120 min data are reported for studies including 0, 10, 30, 60, and 120 min. Microsome stability of […] compound in liver microsomes (0.5 mg/ml) after 0, 5, 10, 20, 30, 60 min. incubation was assessed by LC/MS/MS of reaction extracts.

[10] = Plasma protein binding, mouse; assay type: in vitro ADME; conditions: read-out: plasma protein bound in the mouse (converted)
Experimental: as §1

[11] = Liver microsome stability; assay type: in vitro ADME
Experimental: as §1

[12] = Parallel artificial membrane permeability assay (PAMPA); assay type: in vitro ADME
[13] = molecular target: P-gp/MDR1 (Homo sapiens, UniProt P08183); test: P-gp/MDR1 transport; assay type: in vitro ADME
Sequence of P-gp/MDR1 (P08183 whole entry): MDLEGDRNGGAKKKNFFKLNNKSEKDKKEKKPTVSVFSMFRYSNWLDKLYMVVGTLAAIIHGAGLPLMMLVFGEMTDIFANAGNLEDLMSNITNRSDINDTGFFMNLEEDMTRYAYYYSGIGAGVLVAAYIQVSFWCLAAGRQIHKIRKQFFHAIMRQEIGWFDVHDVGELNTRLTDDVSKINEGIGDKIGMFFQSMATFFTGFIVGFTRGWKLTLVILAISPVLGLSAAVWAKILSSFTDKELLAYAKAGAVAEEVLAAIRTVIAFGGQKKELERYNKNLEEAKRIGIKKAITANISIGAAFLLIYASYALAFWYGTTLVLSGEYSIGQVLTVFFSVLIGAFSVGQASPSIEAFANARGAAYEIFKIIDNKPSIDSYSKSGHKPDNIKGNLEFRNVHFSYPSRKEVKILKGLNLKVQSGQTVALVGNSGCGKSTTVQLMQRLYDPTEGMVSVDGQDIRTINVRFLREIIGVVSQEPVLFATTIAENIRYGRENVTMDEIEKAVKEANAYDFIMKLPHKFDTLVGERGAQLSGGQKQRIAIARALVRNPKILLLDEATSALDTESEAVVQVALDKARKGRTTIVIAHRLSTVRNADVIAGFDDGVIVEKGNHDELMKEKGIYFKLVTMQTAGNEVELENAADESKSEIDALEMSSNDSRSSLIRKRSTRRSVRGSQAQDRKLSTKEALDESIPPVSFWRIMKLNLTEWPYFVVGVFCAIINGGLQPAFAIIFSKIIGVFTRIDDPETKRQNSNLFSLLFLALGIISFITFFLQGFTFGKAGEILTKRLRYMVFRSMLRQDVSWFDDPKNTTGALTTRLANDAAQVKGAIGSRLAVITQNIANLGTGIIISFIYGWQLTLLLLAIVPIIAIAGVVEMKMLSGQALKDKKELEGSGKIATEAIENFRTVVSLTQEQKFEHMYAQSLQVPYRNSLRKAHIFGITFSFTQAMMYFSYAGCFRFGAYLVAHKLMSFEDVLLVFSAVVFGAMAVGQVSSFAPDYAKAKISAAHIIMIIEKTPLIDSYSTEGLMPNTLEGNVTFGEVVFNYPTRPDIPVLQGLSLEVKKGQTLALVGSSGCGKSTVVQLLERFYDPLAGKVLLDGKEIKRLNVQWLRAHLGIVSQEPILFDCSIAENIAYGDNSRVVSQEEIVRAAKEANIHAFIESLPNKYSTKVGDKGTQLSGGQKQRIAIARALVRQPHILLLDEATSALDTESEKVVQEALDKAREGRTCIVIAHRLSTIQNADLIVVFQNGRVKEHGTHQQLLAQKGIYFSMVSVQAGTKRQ

[14] = In vivo pharmacokinetics in mice; conditions: mouse, plasma, intramuscular, 1 mg/kg
Experimental: (A) Three mice each were administered 1 mg/kg agonist IV, IP, or IM. Graphs are mean plasma concentration for each administration route. (B) Results for individual mice were administered 1 mg/kg indicated agonist IM.

[15] = Solubility in 50 mM phosphate buffer (pH 7.4); assay type: physicochemical
[16] = Plasma stability; assay type: in vitro ADME
Experimental: as §1

[17] = ALS and HD patient-derived fibroblasts

Structure (SMILES): O=C(NCCCc1nnc(C2CC2)n1-c1ccccc1)NC1CCOCC1 [Regeneurin-C/O, 1-(3-(5-cyclopropyl-4-phenyl-4H-1,2,4-triazol-3-yl)propyl)-3-(tetrahydro-2H-pyran-4-yl)urea]
- Sciatic nerve axon mitochondrial motility in vivo [1]: reverses the characteristic mitochondrial immobility in sciatic nerve axons

Structure (SMILES): CC1CCCCC1NC(=O)NCCSc1nnc(C2CC2)n1-c1ccccc1 (racemic) [B-A/I, 1-(2-((5-cyclopropyl-4-phenyl-4H-1,2,4-triazol-3-yl)thio)ethyl)-3-(2-methylcyclohexyl)urea]
- Fusogenic activity [2]: potently stimulated mitochondrial fusion
- Binding to / competition at HR2 target [3]: competed for minipeptide binding at the MFN2 HR2 interaction site
- Selectivity of fusogenic effect for phosphomimic Asp378 vs nonphosphorylatable Ala378 MFN2 [4]: non-selective
- Reversal of mitochondrial dysmorphology provoked by MFN2 T105M [5]: as effective as the combination of Cpds A+B
- Mitochondrial motility in cultured neurons expressing MFN2 T105M [6]: restored mitochondrial motility
- Mitochondrial motility in MFN2 T105M sciatic nerves [7]: restored mitochondrial motility to within normal levels
- Mitochondrial ROS levels [8, 17]: reduces mitochondrial ROS levels
- Mitochondrial membrane potential [8, 17]: improves mitochondrial membrane potential
- Mitochondrial structural defects [8, 17]: enhances mitochondrial structural defects
- Effect on fibroblasts from control subjects ([8]; control fibroblasts): has no effect on fibroblasts from control subjects

- Plasma protein binding [9]: low plasma protein binding
- fraction unbound [10]: 0.888
- Liver microsome stability [11]: stability in the liver microsome assay
- P-gp mediated transport [13]: no reverse transport by P-gp
- concentration at 2 h ([14]; 1 mg/kg IM, read-out: total plasma drug concentration 2 hours after IM administration): 7.5 ng/mL
- concentration at 2 h ([14]; IM, from total concentration and protein binding, read-out: free drug concentration 2 hours after IM administration): ~6.66 ng/mL
- concentration at 2 h ([14]; IM, read-out: free drug concentration 2 hours after IM administration): ~20 nM
Structure (SMILES): CCn1c(CCCNC(=O)NC2CCOCC2)nnc1C1CC1 [Mitolityn-4, 1-(3-(5-cyclopropyl-4-ethyl-4H-1,2,4-triazol-3-yl)propyl)-3-(tetrahydro-2H-pyran-4-yl)urea]
- EC50 ([2]; Mus musculus, increase in mitochondrial aspect ratio): ~3 nM
- Fusogenic activity [2]: highest potency
- Passive diffusion across lipid-infused artificial membrane (PAMPA, words) [12]: no passive diffusion across lipid membrane

- Solubility [15]: soluble
- Plasma protein binding [9]: highly protein bound
- Plasma stability [16]: stable in plasma
- Liver microsome stability [11]: rapidly degraded by liver microsomes
Structure (SMILES): CC1CCCCC1NC(=O)NCCSc1nnc(C2CC2)n1-c1ccccc1 (centres unmarked) [Regeneurin-S, 1-(2-((5-cyclopropyl-4-phenyl-4H-1,2,4-triazol-3-yl)thio)ethyl)-3-(2-methylcyclohexyl)urea]
- Mitochondrial motility in MFN2 T105M sciatic nerves [7]: rapidly correct mitochondrial dysmotility
